# Measured values reported in publication PMC3879121 (Journal of natural products, 2013).
# What was measured:
# [1] = target: HDAC4 (Homo sapiens, UniProt P56524); test: HDAC enzyme assay; conditions: at 1 µM, initial results (data not shown)
# [2] = test system: human dermal fibroblast (hDF) cells; test: Cell cytotoxicity MTS-PMS assay, hDF; assay type: cell-based; conditions: 72 h, read-out: hDF GI50
# [3] = target: HDAC2 (Homo sapiens, UniProt Q92769); test: HDAC enzyme assay; conditions: for inhibition of HDAC2: at 1 µM, initial results (data not shown)
# HDAC2, sequence (Q92769 whole entry): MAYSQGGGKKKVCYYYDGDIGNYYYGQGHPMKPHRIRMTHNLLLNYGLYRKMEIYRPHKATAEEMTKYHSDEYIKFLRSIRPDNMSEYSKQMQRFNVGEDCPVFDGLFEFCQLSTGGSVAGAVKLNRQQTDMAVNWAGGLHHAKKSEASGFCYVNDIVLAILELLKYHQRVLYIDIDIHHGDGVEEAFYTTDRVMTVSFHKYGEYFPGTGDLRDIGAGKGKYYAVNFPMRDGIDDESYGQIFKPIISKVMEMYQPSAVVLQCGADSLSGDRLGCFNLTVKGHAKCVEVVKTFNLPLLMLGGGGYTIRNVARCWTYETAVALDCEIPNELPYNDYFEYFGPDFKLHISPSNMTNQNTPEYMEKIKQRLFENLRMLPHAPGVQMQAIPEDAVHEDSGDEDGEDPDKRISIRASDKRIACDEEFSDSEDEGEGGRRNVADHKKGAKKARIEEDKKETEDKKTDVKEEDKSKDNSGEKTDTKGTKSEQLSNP
# HDAC4, sequence (P56524 whole entry): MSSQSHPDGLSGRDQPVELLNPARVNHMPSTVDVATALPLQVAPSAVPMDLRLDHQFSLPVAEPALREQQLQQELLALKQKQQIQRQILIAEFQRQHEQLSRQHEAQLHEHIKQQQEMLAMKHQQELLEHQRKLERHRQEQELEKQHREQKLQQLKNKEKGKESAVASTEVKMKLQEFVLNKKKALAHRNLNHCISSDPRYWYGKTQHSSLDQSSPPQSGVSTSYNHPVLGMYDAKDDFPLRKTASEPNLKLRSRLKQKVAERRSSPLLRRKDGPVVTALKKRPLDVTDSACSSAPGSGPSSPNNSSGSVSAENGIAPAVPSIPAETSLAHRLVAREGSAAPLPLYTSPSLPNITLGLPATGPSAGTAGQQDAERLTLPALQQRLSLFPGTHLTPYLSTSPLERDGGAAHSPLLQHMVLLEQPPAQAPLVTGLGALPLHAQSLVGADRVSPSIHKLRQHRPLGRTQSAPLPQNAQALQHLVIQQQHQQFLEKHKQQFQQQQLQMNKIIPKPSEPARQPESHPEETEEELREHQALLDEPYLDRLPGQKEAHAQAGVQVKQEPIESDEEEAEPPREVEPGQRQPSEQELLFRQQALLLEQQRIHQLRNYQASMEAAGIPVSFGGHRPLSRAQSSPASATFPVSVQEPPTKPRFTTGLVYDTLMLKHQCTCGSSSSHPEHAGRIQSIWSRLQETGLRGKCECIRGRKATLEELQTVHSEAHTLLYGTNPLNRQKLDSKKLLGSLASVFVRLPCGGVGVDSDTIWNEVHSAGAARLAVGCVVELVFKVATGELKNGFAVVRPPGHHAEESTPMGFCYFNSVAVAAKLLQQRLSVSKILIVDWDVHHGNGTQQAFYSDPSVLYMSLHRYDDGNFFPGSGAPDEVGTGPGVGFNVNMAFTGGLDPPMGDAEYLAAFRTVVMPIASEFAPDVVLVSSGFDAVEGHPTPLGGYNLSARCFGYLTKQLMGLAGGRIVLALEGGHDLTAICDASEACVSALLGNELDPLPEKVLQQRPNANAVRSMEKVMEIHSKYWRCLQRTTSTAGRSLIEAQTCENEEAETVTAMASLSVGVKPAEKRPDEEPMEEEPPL
Compound,inhibition of HDAC4 [1],GI50 [2] [µM],inhibition of HDAC2 [3],selectivity for Class I HDACs ([3]; HDAC2 versus Class II HDACs)
"O=C(CCCCCCC(=O)Nc1ccccc1)NO [compound 2, suberoylanilide hydroxamic acid, reference compound]",completely inhibited,–,–,–
"O=C(CCCC(=O)NCCc1ccccc1)NO [compound 3, N^1-Hydroxy-N^5-phenethylglutaramide]",relatively little inhibition of HDAC4,> 100,selectively inhibited HDAC2,–
"CCOC(=O)NCCCC(=O)NCCc1ccccc1 [compound 1, Ethyl 3-(phenethylcarbamoyl)propylcarbamate]",relatively little inhibition of HDAC4,> 100,selectively inhibited HDAC2,"over 3,500 fold"
